Measured values as given in publication PMC11277489, “Novel Piperazine Derivatives of Vindoline as Anticancer Agents” (International Journal of Molecular Sciences, 2024).
Like-named read-outs stand apart in the source and are kept apart here.

Assays:
[1] = system: CCRF-CEM; assay: NCI60 one-dose screen (10 μM), Leukemia; assay type: cell-based; settings: Homo sapiens, read-out: Growth percent rate
[2] = system: HL-60(TB); assay: NCI60 one-dose screen (10 μM), Leukemia; assay type: cell-based; settings: Homo sapiens
[3] = system: K-562; assay: NCI60 one-dose screen (10 μM), Leukemia; assay type: cell-based; settings: Homo sapiens
[4] = system: MOLT-4; assay: NCI60 one-dose screen (10 μM), Leukemia; assay type: cell-based, human; settings: for activity at 10 µM: Homo sapiens
[5] = system: A549/ATCC; assay: NCI60 one-dose screen (10 μM), Non-small Cell Lung Cancer; assay type: cell-based; settings: Homo sapiens
[6] = system: EKVX; assay: as above; assay type: cell-based; settings: Homo sapiens, read-out: Growth percent rate
[7] = system: NCI-H23; assay: as above; assay type: cell-based; settings: Homo sapiens
[8] = system: NCI-H322M; assay: as above; assay type: cell-based; settings: Homo sapiens, read-out: Growth percent rate
[9] = system: NCI-H460; assay: as above; assay type: cell-based; settings: Homo sapiens
[10] = system: NCI-H522; assay: as above; assay type: cell-based; settings: Homo sapiens
[11] = system: COLO 205; assay: NCI60 one-dose screen (10 μM), Colon Cancer; assay type: cell-based, human; settings: Homo sapiens
[12] = system: HCC-2998; assay: NCI60 one-dose screen (10 μM), Colon Cancer; assay type: cell-based; settings: Homo sapiens
[13] = system: HCT-116; assay: NCI60 one-dose screen (10 μM), Colon Cancer; assay type: cell-based; settings: Homo sapiens
[14] = system: HCT-15; assay: NCI60 one-dose screen (10 μM), Colon Cancer; assay type: cell-based; settings: Homo sapiens
[15] = system: HT29; assay: NCI60 one-dose screen (10 μM), Colon Cancer; assay type: cell-based; settings: Homo sapiens
[16] = system: KM12; assay: NCI60 one-dose screen (10 μM), Colon Cancer; assay type: cell-based, human; settings: Homo sapiens
[17] = system: SW-620; assay: NCI60 one-dose screen (10 μM), Colon Cancer; assay type: cell-based; settings: Homo sapiens
[18] = system: SF-268; assay: NCI60 one-dose screen (10 μM), CNS Cancer; assay type: cell-based; settings: Homo sapiens
[19] = system: SF-295; assay: NCI60 one-dose screen (10 μM), CNS Cancer; assay type: cell-based; settings: Homo sapiens
[20] = system: SF-539; assay: NCI60 one-dose screen (10 μM), CNS Cancer; assay type: cell-based, human; settings: Homo sapiens
[21] = system: SNB-19; assay: NCI60 one-dose screen (10 μM), CNS Cancer; assay type: cell-based; settings: Homo sapiens
[22] = system: SNB-75; assay: NCI60 one-dose screen (10 μM), CNS Cancer; assay type: cell-based, human; settings: Homo sapiens
[23] = system: LOX IMVI; assay: NCI60 one-dose screen (10 μM), Melanoma; assay type: cell-based, human; settings: Homo sapiens, LOX IMVI, read-out: Growth percent rate
[24] = system: MALME-3M; assay: NCI60 one-dose screen (10 μM), Melanoma; assay type: cell-based; settings: Homo sapiens, read-out: Growth percent rate
[25] = system: M14; assay: NCI60 one-dose screen (10 μM), Melanoma; assay type: cell-based; settings: Homo sapiens
[26] = system: MDA-MB-435; assay: NCI60 one-dose screen (10 μM), Melanoma; assay type: cell-based; settings: Homo sapiens
[27] = system: SK-MEL-2; assay: NCI60 one-dose screen (10 μM), Melanoma; assay type: cell-based; settings: Homo sapiens
[28] = system: SK-MEL-28; assay: NCI60 one-dose screen (10 μM), Melanoma; assay type: cell-based; settings: Homo sapiens
[29] = system: SK-MEL-5; assay: NCI60 one-dose screen (10 μM), Melanoma; assay type: cell-based, human; settings: Homo sapiens
[30] = system: UACC-257; assay: NCI60 one-dose screen (10 μM), Melanoma; assay type: cell-based; settings: Homo sapiens
[31] = system: IGROV1; assay: NCI60 one-dose screen (10 μM), Ovarian Cancer; assay type: cell-based; settings: Homo sapiens
[32] = system: OVCAR-3; assay: NCI60 one-dose screen (10 μM), Ovarian Cancer; assay type: cell-based; settings: Homo sapiens
[33] = system: OVCAR-4; assay: NCI60 one-dose screen (10 μM), Ovarian Cancer; assay type: cell-based; settings: Homo sapiens
[34] = system: OVCAR-8; assay: NCI60 one-dose screen (10 μM), Ovarian Cancer; assay type: cell-based; settings: Homo sapiens
[35] = system: 786–0; assay: NCI60 one-dose screen (10 μM), Renal Cancer; assay type: cell-based; settings: Homo sapiens
[36] = system: ACHN; assay: NCI60 one-dose screen (10 μM), Renal Cancer; assay type: cell-based; settings: Homo sapiens, read-out: Growth percent rate
[37] = system: CAKI-1; assay: NCI60 one-dose screen (10 μM), Renal Cancer; assay type: cell-based; settings: Homo sapiens
[38] = system: RXF 393; assay: NCI60 one-dose screen (10 μM), Renal Cancer; assay type: cell-based, human; settings: Homo sapiens
[39] = system: SN12C; assay: NCI60 one-dose screen (10 μM), Renal Cancer; assay type: cell-based; settings: Homo sapiens, read-out: Growth percent rate
[40] = system: DU-145; assay: NCI60 one-dose screen (10 μM), Prostate Cancer; assay type: cell-based; settings: Homo sapiens
[41] = system: MCF7; assay: NCI60 one-dose screen (10 μM), Breast Cancer; assay type: cell-based; settings: Homo sapiens
[42] = system: 60 human tumor cell lines (NCI60); assay: NCI60 one-dose screen (10 μM), whole panel; assay type: cell-based; settings: read-out: Growth percent rate, Mean
[43] = 10 μM, Non-small Cell Lung Cancer

CCC12C=CCN3CCC4(c5cc(NC(=O)CN6CCN(Cc7ccc(C(F)(F)F)cc7)CC6)c(OC)cc5N(C)C4C(O)(C(=O)OC)C1OC(C)=O)C32 (stereo not shown) [Compound 18]
activity at 10 µM [1]: 39.4% | activity at 10 µM ([2]; HL-60, read-out: Growth percent rate): 42.6% | activity at 10 µM ([3]; K562, read-out: Growth percent rate): 43.8% | activity at 10 µM ([4]; MOLT-4, read-out: Growth percent rate): 16.7% | activity at 10 µM ([5]; A549, read-out: Growth percent rate): 54.1% | activity at 10 µM [6]: 61.6% | activity at 10 µM ([7]; NCI-H23, read-out: Growth percent rate): 73.1% | activity at 10 µM [8]: 64.6% | activity at 10 µM ([9]; NCI-H460, read-out: Growth percent rate): 62.1% | activity at 10 µM ([10]; NCI-H522, read-out: Growth percent rate): 55.2% | activity at 10 µM ([11]; COLO 205, read-out: Growth percent rate): 56.5% | activity at 10 µM ([12]; HCC 2998, read-out: Growth percent rate): 79.1% | activity at 10 µM ([13]; HCT-116, read-out: Growth percent rate): 46.4% | activity at 10 µM ([14]; HCT-15, read-out: Growth percent rate): 49.7% | activity at 10 µM ([15]; HT-29, read-out: Growth percent rate): 39.3% | activity at 10 µM ([16]; KM12, read-out: Growth percent rate): 83% | activity at 10 µM ([17]; SW-620, read-out: Growth percent rate): 87% | activity at 10 µM ([18]; SF-268, read-out: Growth percent rate): 65.2% | activity at 10 µM ([19]; SF-295, read-out: Growth percent rate): 75.4% | activity at 10 µM ([20]; SF-539, read-out: Growth percent rate): 73.1% | activity at 10 µM ([21]; SNB-19, read-out: Growth percent rate): 47.4% | activity at 10 µM ([22]; SNB-75, read-out: Growth percent rate): 20.3% | activity at 10 µM [23]: 58.4% | activity at 10 µM ([24]; Malme-3M): 73.3% | activity at 10 µM ([25]; M14, read-out: Growth percent rate): 67.2% | activity at 10 µM ([26]; MDA-MB-435, read-out: Growth percent rate): 63.9% | activity at 10 µM ([27]; SK-MEL-2, read-out: Growth percent rate): 72.9% | activity at 10 µM ([28]; SK-MEL-28, read-out: Growth percent rate): 90.8% | activity at 10 µM ([29]; SK-MEL-5, read-out: Growth percent rate): 21.2% | activity at 10 µM ([30]; UACC-257, read-out: Growth percent rate): 80.6% | activity at 10 µM ([31]; IGROV-1, read-out: Growth percent rate): 71.3% | activity at 10 µM ([32]; OVCAR-3, read-out: Growth percent rate): 84.5% | activity at 10 µM ([33]; OVCAR-4, read-out: Growth percent rate): 63.1% | activity at 10 µM ([34]; OVCAR-8, read-out: Growth percent rate): 72% | activity at 10 µM ([35]; 786-0, read-out: Growth percent rate): 75.5% | activity at 10 µM [36]: 67.3% | activity at 10 µM ([37]; CAKI-1, read-out: Growth percent rate): 33% | activity at 10 µM ([38]; RXF 393, read-out: Growth percent rate): 41% | activity at 10 µM [39]: 59.3% | activity at 10 µM ([40]; DU-145, read-out: Growth percent rate): 71.6% | activity at 10 µM ([41]; MCF7, read-out: Growth percent rate): 32.6% | activity at 10 µM ([42]; Homo sapiens): 60.6%

CC[C@]12C=CCN3CC[C@@]4(c5ccc(OC)cc5N(C)[C@H]4[C@@](O)(C(=O)OC)[C@@H]1OC(=O)CCC(=O)N1CCN(C(c4ccc(F)cc4)c4ccc(F)cc4)CC1)[C@@H]32 [Compound 31]
activity at 10 µM ([1]; 10 μM, Leukemia): -81.9% | activity at 10 µM ([2]; 10 μM, HL-60(TB), Leukemia, read-out: Growth percent rate): -98.4% | activity at 10 µM ([3]; K562, 10 μM, K-562, Leukemia, read-out: Growth percent rate): 7.65% | growth percent rate ([4]; 10 μM one-dose, MOLT-4 leukemia, negative = lethality): −98.81% | activity at 10 µM ([4]; 10 μM, MOLT-4, Leukemia, read-out: Growth percent rate): -98.8% | activity at 10 µM ([5]; 10 μM, A549/ATCC, Non-small Cell Lung Cancer, read-out: Growth percent rate): 1.83% | activity at 10 µM [6, 43]: -17.8% | activity at 10 µM ([7]; 10 μM, NCI-H23, Non-small Cell Lung Cancer, read-out: Growth percent rate): -23.4% | activity at 10 µM [8, 43]: -0.86% | activity at 10 µM ([9]; 10 μM, NCI-H460, Non-small Cell Lung Cancer, read-out: Growth percent rate): -60.9% | activity at 10 µM ([10]; 10 μM, NCI-H522, Non-small Cell Lung Cancer, read-out: Growth percent rate): -22.2% | activity at 10 µM ([11]; 10 μM, COLO 205, Colon Cancer, read-out: Growth percent rate): -45% | activity at 10 µM ([12]; 10 μM, HCC-2998, Colon Cancer, read-out: Growth percent rate): -66.9% | activity at 10 µM ([13]; 10 μM, HCT-116, Colon Cancer, read-out: Growth percent rate): -32.4% | activity at 10 µM ([14]; 10 μM, HCT-15, Colon Cancer, read-out: Growth percent rate): 3.11% | activity at 10 µM ([15]; HT-29, 10 μM, HT29, Colon Cancer, read-out: Growth percent rate): -83.3% | activity at 10 µM ([16]; 10 μM, KM12, Colon Cancer, read-out: Growth percent rate): -50.8% | activity at 10 µM ([17]; 10 μM, SW-620, Colon Cancer, read-out: Growth percent rate): -37% | activity at 10 µM ([18]; 10 μM, SF-268, CNS Cancer, read-out: Growth percent rate): 7.32% | activity at 10 µM ([19]; 10 μM, SF-295, CNS Cancer, read-out: Growth percent rate): -61.1% | activity at 10 µM ([20]; 10 μM, SF-539, CNS Cancer, read-out: Growth percent rate): -38.4% | activity at 10 µM ([21]; 10 μM, SNB-19, CNS Cancer, read-out: Growth percent rate): 8.85% | activity at 10 µM ([22]; 10 μM, SNB-75, CNS Cancer, read-out: Growth percent rate): -43.5% | activity at 10 µM ([23]; 10 μM, Melanoma): -56% | activity at 10 µM ([24]; 10 μM, MALME-3M, Melanoma): -16.6% | activity at 10 µM ([25]; 10 μM, M14, Melanoma, read-out: Growth percent rate): 0.99% | activity at 10 µM ([26]; 10 μM, MDA-MB-435, Melanoma, read-out: Growth percent rate): -23.3% | activity at 10 µM ([27]; 10 μM, SK-MEL-2, Melanoma, read-out: Growth percent rate): -85.4% | activity at 10 µM ([28]; 10 μM, SK-MEL-28, Melanoma, read-out: Growth percent rate): -6.67% | activity at 10 µM ([29]; 10 μM, SK-MEL-5, Melanoma, read-out: Growth percent rate): -88% | activity at 10 µM ([30]; 10 μM, UACC-257, Melanoma, read-out: Growth percent rate): -30.8% | activity at 10 µM ([31]; IGROV-1, 10 μM, IGROV1, Ovarian Cancer, read-out: Growth percent rate): -92.2% | activity at 10 µM ([32]; 10 μM, OVCAR-3, Ovarian Cancer, read-out: Growth percent rate): -71% | activity at 10 µM ([33]; 10 μM, OVCAR-4, Ovarian Cancer, read-out: Growth percent rate): -34.6% | activity at 10 µM ([34]; 10 μM, OVCAR-8, Ovarian Cancer, read-out: Growth percent rate): -13.2% | activity at 10 µM ([35]; 10 μM, 786-0, Renal Cancer, read-out: Growth percent rate): -40.3% | activity at 10 µM ([36]; 10 μM, Renal Cancer): -35.8% | activity at 10 µM ([37]; 10 μM, CAKI-1, Renal Cancer, read-out: Growth percent rate): 1.73% | activity at 10 µM ([38]; 10 μM, RXF 393, Renal Cancer, read-out: Growth percent rate): -56.3% | activity at 10 µM ([39]; 10 μM, Renal Cancer): -89.1% | activity at 10 µM ([40]; 10 μM, DU-145, Prostate Cancer, read-out: Growth percent rate): -3.52% | activity at 10 µM ([41]; 10 μM, MCF7, Breast Cancer, read-out: Growth percent rate): -28.7% | activity at 10 µM ([42]; 10 μM, mean over 60 human cancer cell lines): -41.8%
